Results as given in BindingDB's records for patent US12390472 (Evopoint Biosciences, 2025).

Target: Histone-lysine N-methyltransferase EZH2 [Y641N] (UniProt Q15910, Y641N)
Test: Test on EZH2 (Y641F) and EZH2 (Y641N) Inhibitory Activities
Description: ProceduresCompounds at different concentrations were dissolved in 100% DMSO and transferred to test plates, and the final concentration of DMSO was 1%. Enzyme solution and substrate SAM solution were prepared with 1-fold reaction buffer (optimized Tris buffer). 5 uL of enzyme solution was added to the test plate and wells only added with 5 uL of reaction buffer were used as negative control wells. […] 5 uL of receptor solution was added and the plate was incubated away from light at room temperature for 60 min. 10 uL of donor solution was added and the plate was incubated away from light at room temperature for 30 min. The endpoint values were read on the Envision and the IC50 was calculated.Data CalculationData were fitted by GraphPad Prism 5 software and inhibition rate was calculated according to equation (1)Inh %=(Max−Signal)/(Max−Min)×100 (1)IC50 was calculated using equation (2)Y=Bottom+(Top−Bottom)/(1+10^((Log IC 50 −X)×Hill Slope))Y: inhibition rate; X: concentration of the compound

Histone-lysine N-methyltransferase EZH2 [Y641N], sequence (Q15910 whole entry Y641N): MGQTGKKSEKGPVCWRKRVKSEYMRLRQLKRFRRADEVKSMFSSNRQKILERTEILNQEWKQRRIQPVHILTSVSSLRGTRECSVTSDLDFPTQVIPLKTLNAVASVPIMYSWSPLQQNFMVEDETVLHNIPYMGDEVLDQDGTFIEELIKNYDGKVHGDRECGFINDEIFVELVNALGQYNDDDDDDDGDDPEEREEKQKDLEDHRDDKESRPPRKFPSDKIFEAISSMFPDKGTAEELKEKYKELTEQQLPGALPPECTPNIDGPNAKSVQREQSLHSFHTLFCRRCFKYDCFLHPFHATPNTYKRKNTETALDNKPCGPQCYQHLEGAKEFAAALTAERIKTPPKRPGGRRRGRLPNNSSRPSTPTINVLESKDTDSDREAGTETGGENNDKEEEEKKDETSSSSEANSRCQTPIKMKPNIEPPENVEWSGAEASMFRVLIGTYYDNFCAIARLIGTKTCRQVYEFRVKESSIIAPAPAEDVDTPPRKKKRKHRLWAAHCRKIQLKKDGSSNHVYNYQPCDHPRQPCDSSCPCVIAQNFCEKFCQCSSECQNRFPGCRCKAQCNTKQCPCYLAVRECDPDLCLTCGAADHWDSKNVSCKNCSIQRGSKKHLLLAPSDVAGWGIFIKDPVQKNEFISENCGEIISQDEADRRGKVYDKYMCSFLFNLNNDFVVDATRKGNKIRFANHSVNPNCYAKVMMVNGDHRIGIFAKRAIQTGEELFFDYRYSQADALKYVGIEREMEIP

Structure (SMILES): CCN(c1cc(O[C@H]2C[C@H](N3CCCCC3)C2)cc(C(=O)NCc2c(CO)cc(C)[nH]c2=O)c1C)C1CCC(F)(F)CC1 [US12390472, Example 95]
- IC50: 3.1 nM
